# Measured values reported in ChEMBL document CHEMBL5055685, “Discovery of the First Potent IDO1/IDO2 Dual Inhibitors: A Promising Strategy for Cancer Immunotherapy” (J Med Chem, 2021).
# Activity calls are given as the source filed them. The rule behind the calls is not given here.
# Key:
# [1] = target: Mitogen-activated protein kinase kinase kinase 20 (Homo sapiens) (UniProt Q9NYL2); assay: Inhibition of ZAK (unknown origin) at 1 uM
# [2] = target: Receptor tyrosine-protein kinase erbB-2 (Homo sapiens) (UniProt P04626); assay: Inhibition of ERBB2 (unknown origin) at 1 uM
# Chain of Receptor tyrosine-protein kinase erbB-2 (Homo sapiens) (P04626 whole entry): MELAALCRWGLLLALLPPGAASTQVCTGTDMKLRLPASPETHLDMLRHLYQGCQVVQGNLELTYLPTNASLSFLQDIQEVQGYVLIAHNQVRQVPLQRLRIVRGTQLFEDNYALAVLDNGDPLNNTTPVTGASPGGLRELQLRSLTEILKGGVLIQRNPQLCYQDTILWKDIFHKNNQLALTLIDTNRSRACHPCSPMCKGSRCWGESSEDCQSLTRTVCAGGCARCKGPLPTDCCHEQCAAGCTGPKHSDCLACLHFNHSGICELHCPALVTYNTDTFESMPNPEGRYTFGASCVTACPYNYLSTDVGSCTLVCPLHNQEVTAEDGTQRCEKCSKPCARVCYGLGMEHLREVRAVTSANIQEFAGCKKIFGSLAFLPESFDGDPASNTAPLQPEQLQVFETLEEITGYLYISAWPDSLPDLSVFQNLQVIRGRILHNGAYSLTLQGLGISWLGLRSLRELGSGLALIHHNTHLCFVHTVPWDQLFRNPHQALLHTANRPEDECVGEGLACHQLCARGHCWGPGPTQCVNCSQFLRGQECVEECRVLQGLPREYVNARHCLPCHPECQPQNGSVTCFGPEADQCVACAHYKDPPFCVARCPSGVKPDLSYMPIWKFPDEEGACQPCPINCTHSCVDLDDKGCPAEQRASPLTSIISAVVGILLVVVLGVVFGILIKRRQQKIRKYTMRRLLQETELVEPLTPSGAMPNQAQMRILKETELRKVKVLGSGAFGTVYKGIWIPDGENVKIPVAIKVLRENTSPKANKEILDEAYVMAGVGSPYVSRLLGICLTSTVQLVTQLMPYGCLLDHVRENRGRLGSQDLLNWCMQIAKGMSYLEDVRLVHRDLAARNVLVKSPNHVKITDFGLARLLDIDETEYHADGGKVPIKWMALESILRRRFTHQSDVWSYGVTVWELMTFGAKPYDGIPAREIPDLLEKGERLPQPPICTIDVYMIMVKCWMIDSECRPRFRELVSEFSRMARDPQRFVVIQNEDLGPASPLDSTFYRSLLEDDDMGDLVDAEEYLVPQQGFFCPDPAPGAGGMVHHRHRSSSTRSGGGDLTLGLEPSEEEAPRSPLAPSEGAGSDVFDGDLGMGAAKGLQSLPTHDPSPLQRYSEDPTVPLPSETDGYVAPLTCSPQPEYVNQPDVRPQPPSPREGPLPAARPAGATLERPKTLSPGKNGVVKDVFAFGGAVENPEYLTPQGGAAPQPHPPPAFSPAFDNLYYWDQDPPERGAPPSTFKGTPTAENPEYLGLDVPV
# [3] = target: Tyrosine-protein kinase Fes/Fps (Homo sapiens) (UniProt P07332); assay: Inhibition of FES (unknown origin) at 1 uM
# Chain of Tyrosine-protein kinase Fes/Fps (Homo sapiens) (P07332 whole entry): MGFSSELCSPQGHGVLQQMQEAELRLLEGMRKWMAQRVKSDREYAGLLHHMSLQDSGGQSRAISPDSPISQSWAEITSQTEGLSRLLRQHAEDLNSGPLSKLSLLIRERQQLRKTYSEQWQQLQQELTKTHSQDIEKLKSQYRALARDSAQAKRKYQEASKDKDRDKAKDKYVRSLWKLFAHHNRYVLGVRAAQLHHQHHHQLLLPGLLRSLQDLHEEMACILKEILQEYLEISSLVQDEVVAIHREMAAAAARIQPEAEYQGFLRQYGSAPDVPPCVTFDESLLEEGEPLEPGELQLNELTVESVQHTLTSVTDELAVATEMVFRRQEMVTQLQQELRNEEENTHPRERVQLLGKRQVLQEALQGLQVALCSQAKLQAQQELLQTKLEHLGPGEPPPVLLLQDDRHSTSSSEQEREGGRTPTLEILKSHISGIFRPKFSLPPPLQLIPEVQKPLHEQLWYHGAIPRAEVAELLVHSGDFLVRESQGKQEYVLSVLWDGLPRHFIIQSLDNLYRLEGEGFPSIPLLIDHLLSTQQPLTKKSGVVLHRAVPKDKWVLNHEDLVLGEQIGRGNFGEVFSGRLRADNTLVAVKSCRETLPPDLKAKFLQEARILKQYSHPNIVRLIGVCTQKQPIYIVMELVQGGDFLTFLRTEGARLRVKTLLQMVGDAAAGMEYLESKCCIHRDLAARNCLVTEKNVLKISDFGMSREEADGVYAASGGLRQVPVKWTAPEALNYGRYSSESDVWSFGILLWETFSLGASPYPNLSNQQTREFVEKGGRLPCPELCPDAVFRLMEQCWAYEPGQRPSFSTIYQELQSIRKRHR
# HCT-116 [4] = assay: Antitumor immunity in BALB/c mouse xenografted with human HCT-116 cells assessed as induction of apoptosis of CD4+ T-lymphocytes in spleen by propidium iodide staining based flow cytometry analysis (reference value: 33.9 %); type: functional
# [5] = target: Dual specificity tyrosine-phosphorylation-regulated kinase 1B (Homo sapiens) (UniProt Q9Y463); assay: Inhibition of DYRK1B (unknown origin) at 1 uM
# Chain of Dual specificity tyrosine-phosphorylation-regulated kinase 1B (Homo sapiens) (Q9Y463 whole entry, looked up): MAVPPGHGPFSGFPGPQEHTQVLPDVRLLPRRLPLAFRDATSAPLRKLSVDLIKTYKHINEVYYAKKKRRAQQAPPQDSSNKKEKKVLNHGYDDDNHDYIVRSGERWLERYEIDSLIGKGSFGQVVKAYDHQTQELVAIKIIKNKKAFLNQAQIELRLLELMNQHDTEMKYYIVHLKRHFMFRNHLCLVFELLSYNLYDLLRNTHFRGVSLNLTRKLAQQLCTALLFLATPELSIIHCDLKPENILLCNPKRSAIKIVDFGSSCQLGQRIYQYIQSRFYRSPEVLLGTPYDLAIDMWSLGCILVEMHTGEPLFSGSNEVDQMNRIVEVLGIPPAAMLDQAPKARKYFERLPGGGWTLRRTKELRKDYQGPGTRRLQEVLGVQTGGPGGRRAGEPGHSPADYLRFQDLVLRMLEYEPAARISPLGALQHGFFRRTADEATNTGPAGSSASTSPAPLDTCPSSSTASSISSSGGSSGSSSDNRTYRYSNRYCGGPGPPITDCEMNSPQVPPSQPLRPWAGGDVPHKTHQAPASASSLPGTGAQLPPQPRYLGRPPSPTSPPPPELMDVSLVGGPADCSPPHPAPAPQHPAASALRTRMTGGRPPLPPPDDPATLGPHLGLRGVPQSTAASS
# [6] = target: Myosin-IIIa (Homo sapiens) (UniProt Q8NEV4); assay: Inhibition of MYO3A (unknown origin) at 1 uM
# [7] = target: Rho-associated protein kinase 2 (Homo sapiens) (UniProt O75116); assay: Inhibition of ROCK2 (unknown origin) at 1 uM
# [8] = target: Serine/threonine-protein kinase D2 (Homo sapiens) (UniProt Q9BZL6); assay: Inhibition of PKD2 (unknown origin) at 1 uM
# [9] = Toxicity in rat assessed as maximum tolerated dose; type: organism-based; conditions: in vivo
# [10] = Efflux ratio of apparent permeability across basolateral to apical over apical to basolateral side in human Caco-2 cells; type: ADME, cell-based
# [11] = target: TGF-beta receptor type-2 (Homo sapiens) (UniProt P37173); assay: Inhibition of TGFBR2 (unknown origin) at 1 uM
# [12] = target: Death-associated protein kinase 1 (Homo sapiens) (UniProt P53355); assay: Inhibition of DAPK1 (unknown origin) at 1 uM
# [13] = target: Protein kinase C gamma type (Homo sapiens) (UniProt P05129); assay: Inhibition of PKCgamma (unknown origin)at 1 uM
# [14] = target: Indoleamine 2,3-dioxygenase 1 (Mus musculus) (UniProt P28776); assay: In vivo inhibition of IDO1 in BALB/c mouse xenografted with human HCT-116 cells assessed as suppression of IDO1 mRNA expression in tumor by quantitative RT-PCR analysis; type: functional, organism-based
# [15] = target: Fibroblast growth factor receptor 4 (Homo sapiens) (UniProt P22455); assay: Inhibition of FGFR4 (unknown origin) at 1 uM
# [16] = target: Protein-tyrosine kinase 2-beta (Homo sapiens) (UniProt Q14289); assay: Inhibition of PYK2 (unknown origin) at 1 uM
# [17] = target: Tyrosine-protein kinase JAK3 (Homo sapiens) (UniProt P52333); assay: Inhibition of JAK3 (unknown origin) at 1 uM
# [18] = target: STE20-like serine/threonine-protein kinase (Homo sapiens) (UniProt Q9H2G2); assay: Inhibition of SLK (unknown origin) at 1 uM
# [19] = target: Glycogen synthase kinase-3 alpha (Homo sapiens) (UniProt P49840); assay: Inhibition of GSK3A (unknown origin) at 1 uM
# Chain of Glycogen synthase kinase-3 alpha (Homo sapiens) (P49840 2-483 limits assumed): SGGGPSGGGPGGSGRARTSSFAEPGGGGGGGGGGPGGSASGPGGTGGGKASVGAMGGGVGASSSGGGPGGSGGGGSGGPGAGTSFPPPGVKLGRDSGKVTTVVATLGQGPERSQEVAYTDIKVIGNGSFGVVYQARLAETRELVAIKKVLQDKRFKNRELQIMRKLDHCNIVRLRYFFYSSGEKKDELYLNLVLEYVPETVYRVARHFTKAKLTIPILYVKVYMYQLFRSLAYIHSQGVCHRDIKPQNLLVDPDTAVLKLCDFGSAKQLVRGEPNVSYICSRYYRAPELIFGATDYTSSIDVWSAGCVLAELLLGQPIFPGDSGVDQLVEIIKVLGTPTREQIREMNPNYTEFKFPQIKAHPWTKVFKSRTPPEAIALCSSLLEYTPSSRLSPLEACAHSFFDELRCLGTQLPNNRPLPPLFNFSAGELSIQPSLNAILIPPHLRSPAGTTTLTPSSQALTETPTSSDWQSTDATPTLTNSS
# [20] = target: Discoidin domain-containing receptor 2 (Homo sapiens) (UniProt Q16832); assay: Inhibition of DDR2 (unknown origin) at 1 uM
# HCT-116 [21] = assay: Antitumor immunity in BALB/c mouse xenografted with human HCT-116 cells assessed as necrotic Treg cells in tumor-draining lymph nodes by propidium iodide staining based flow cytometry analysis (reference value: 3.91 %); type: functional
# [22] = Protein binding in human plasma assessed as fraction unbound by equilibrium dialysis; type: ADME, cell-free
# [23] = target: Dual specificity mitogen-activated protein kinase kinase 1 (Homo sapiens) (UniProt Q02750); assay: Inhibition of MEK1 (unknown origin) at 1 uM
# [24] = target: Mitogen-activated protein kinase kinase kinase 2 (Homo sapiens) (UniProt Q9Y2U5); assay: Inhibition of MEKK2 (unknown origin) at 1 uM
# [25] = target: Cyclin-Y/Cyclin-dependent kinase 16 (Homo sapiens) (UniProt Q00536+Q8ND76); assay: Inhibition of CDK16/cyclin-Y (unknown origin) at 1 uM; type: protein-complex assay
# [26] = target: Tau-tubulin kinase 1 (Homo sapiens) (UniProt Q5TCY1); assay: Inhibition of TTBK1 (unknown origin) at 1 uM
# [27] = target: Non-receptor tyrosine-protein kinase TNK1 (Homo sapiens) (UniProt Q13470); assay: Inhibition of TNK1 (unknown origin) at 1 uM
# Chain of Non-receptor tyrosine-protein kinase TNK1 (Homo sapiens) (Q13470 whole entry): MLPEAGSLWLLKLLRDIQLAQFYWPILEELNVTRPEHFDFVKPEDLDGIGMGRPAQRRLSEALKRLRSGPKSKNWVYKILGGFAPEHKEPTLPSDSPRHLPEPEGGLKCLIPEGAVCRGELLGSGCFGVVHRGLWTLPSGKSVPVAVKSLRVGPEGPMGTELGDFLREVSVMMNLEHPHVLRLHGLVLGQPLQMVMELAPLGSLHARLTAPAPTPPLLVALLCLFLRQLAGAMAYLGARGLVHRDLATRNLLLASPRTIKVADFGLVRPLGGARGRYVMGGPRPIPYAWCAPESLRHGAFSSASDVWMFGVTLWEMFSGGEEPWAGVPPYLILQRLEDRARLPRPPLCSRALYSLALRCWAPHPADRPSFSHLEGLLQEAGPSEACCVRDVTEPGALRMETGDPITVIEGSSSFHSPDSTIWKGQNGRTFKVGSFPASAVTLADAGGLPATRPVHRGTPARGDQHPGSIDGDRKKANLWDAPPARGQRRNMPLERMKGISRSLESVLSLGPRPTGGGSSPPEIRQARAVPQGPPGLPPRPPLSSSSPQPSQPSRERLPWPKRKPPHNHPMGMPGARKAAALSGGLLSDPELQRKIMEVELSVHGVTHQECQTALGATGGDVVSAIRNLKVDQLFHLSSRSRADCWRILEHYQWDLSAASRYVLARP
# HCT-116 [28] = assay: Antitumor immunity in BALB/c mouse xenografted with human HCT-116 cells assessed as necrotic Treg cells in spleen by propidium iodide staining based flow cytometry analysis (reference value: 1.47 %); type: functional
# [29] = target: Phosphorylase b kinase gamma catalytic chain, skeletal muscle/heart isoform (Homo sapiens) (UniProt Q16816); assay: Inhibition of PHKgamma1 (unknown origin) at 1 uM
# [30] = Metabolic stability in human liver microsomes assessed as rate constant; type: ADME, Microsome
# [31] = target: Interleukin-1 receptor-associated kinase 4 (Homo sapiens) (UniProt Q9NWZ3); assay: Inhibition of IRAK4 (unknown origin) at 1 uM
# Homo sapiens = species: Homo sapiens; assay: Inhibition of ALK6 (unknown origin) at 1 uM
# [32] = Half life in rat liver microsomes; type: ADME, Microsome
# [33] = target: Serine/threonine-protein kinase MARK1 (Homo sapiens) (UniProt Q9P0L2); assay: Inhibition of MARK1 (unknown origin) at 1 uM
# [34] = target: Activated CDC42 kinase 1 (Homo sapiens) (UniProt Q07912); assay: Inhibition of ACK1 (unknown origin) at 1 uM
# [35] = target: Mitogen-activated protein kinase kinase kinase 19 (Homo sapiens) (UniProt Q56UN5); assay: Inhibition of YSK4 (unknown origin) at 1 uM
# [36] = target: SNF-related serine/threonine-protein kinase (Homo sapiens) (UniProt Q9NRH2); assay: Inhibition of SNRK (unknown origin) at 1 uM
# [37] = target: Ribosomal protein S6 kinase beta-1 (Homo sapiens) (UniProt P23443); assay: Inhibition of p70S6K (unknown origin) at 1 uM
# Chain of Ribosomal protein S6 kinase beta-1 (Homo sapiens) (P23443 whole entry, looked up): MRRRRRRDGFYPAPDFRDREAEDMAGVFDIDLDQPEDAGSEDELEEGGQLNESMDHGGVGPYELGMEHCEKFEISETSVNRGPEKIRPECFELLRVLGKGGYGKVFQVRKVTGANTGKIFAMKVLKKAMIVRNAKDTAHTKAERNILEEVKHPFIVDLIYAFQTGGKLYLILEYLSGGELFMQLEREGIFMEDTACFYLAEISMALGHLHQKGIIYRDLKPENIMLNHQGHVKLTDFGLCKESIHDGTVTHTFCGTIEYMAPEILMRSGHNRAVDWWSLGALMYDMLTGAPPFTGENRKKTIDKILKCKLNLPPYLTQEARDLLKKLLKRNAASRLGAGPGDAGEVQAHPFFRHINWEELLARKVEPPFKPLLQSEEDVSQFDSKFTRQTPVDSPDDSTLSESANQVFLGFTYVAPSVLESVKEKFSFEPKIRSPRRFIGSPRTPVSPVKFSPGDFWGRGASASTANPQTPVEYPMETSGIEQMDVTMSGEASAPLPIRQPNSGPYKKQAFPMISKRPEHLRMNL
# [38] = target: cAMP-dependent protein kinase catalytic subunit alpha (Homo sapiens) (UniProt P17612); assay: Inhibition of PKA (unknown origin) at 1 uM
# [39] = Protein binding in ICR mouse plasma assessed as fraction unbound by equilibrium dialysis; type: ADME, cell-free
# Mus musculus = assay: In vivo inhibition of TDO in BALB/c mouse xenografted with human HCT-116 cells assessed as suppression of TDO expression in tumor by immunohistochemical assay; type: functional, organism-based
# [40] = target: Kinase suppressor of Ras 1 (Homo sapiens) (UniProt Q8IVT5); assay: Inhibition of KSR1 (unknown origin) at 1 uM
# [41] = target: Rhodopsin kinase GRK1 (Homo sapiens) (UniProt Q15835); assay: Inhibition of GRK1 (unknown origin) at 1 uM
# [42] = target: Tyrosine-protein kinase HCK (Homo sapiens) (UniProt P08631); assay: Inhibition of HCK (unknown origin) at 1 uM
structure (smiles),measurement,setting,value
OCCOCc1cn(CCNc2nonc2/C(=N/O)Nc2ccc(F)c(Br)c2)nn1,inhibition,[1],inactive
same,inhibition,[2],inactive
same,inhibition,[3],inactive
same,Activity,HCT-116 [4],15.3%
same,inhibition,[5],inactive
same,inhibition,[6],inactive
same,inhibition,[7],inactive
same,inhibition,[8],inactive
same,MTD,[9],2 mg/kg
same,efflux ratio,[10],6.4
same,inhibition,[11],inactive
same,inhibition,[12],inactive
same,inhibition,[13],inactive
same,inhibition,[14],Active
same,inhibition,[15],inactive
same,inhibition,[16],inactive
same,inhibition,[17],inactive
same,inhibition,[18],inactive
same,inhibition,[19],inactive
same,inhibition,[20],inactive
same,Activity,HCT-116 [21],0.73%
same,fraction unbound,[22],0.0411
same,inhibition,[23],inactive
same,inhibition,[24],inactive
same,inhibition,[25],inactive
same,inhibition,[26],inactive
same,inhibition,[27],inactive
same,Activity,HCT-116 [28],0.78%
same,inhibition,[29],inactive
same,k el,[30],0.00025 s⁻¹
same,inhibition,[31],inactive
same,inhibition,Homo sapiens,inactive
same,half-life,[32],21.2 min
same,inhibition,[33],inactive
same,inhibition,[34],inactive
same,inhibition,[35],inactive
same,inhibition,[36],inactive
same,inhibition,[37],inactive
same,inhibition,[38],inactive
same,fraction unbound,[39],0.0968
same,inhibition,Mus musculus,inactive
same,inhibition,[40],inactive
same,inhibition,[41],inactive
same,inhibition,[42],inactive
